# Test results as given in patent US6207397A, “In vitro fluorescence polarization assay” (ARIAD Pharmaceuticals, Inc., priority 1997, dated 2001).
# Read-outs that look alike come from different tables or passages of the source. Square brackets hold non-standard residues; d marks the D form. Peptide text beside a SMILES is read from it. * marks the point of attachment. 5FAM = O=C1OC2(c3ccc(O)cc3Oc3cc(O)ccc32)c2ccc(C(=O)*)cc21; pY = N[C@@H](Cc1ccc(OP(=O)(O)O)cc1)C(=O)O
# Columns and labels:
# Src-SH2 [1] = target: T1, Src-SH2 (Homo sapiens, UniProt P12931); assay: Fluorescence polarization Src-SH2 competition assay with peptides; type: binding; details: for IC50: TABLE 1, fixed probe and Src-SH2, increasing peptide, read-out: Peptide competitive IC50
# T1 construct: Human Src encoding residues 145-251; made in house; host or cells: E. coli BL21 (DE3), pT7 expression vector
# Protocol: (§1) All polarization methods were performed on an FPM2 96-well plate reader (Jolley), with standard cutoff filters (excitation=485 nm; emission=530 nm). Saturation experiments were used to explore various conditions for the assay, with the aim of maximizing the protein and assay stability, and of determining Kd s of the protein/probe interaction.
# For competition experiments, fixed concentrations of probe and protein were used, and increasing concentrations of peptides were added.
# All buffer components were low-fluorescence grade (Panvera Corporation). Standard (STD) buffer contains 20 mM phosphate (pH 7.4), 100 mM NaCl, 2 mM DTT, 1 mM EDTA, and 100 ug/ml BGG. Standard buffer is prepared by preparing NaCl, EDTA and phosphate stocks in Millipore water or the cleanest available water supply. The buffer is brought to volume in the same clean water.
# The SRC protein is used at a concentration of 0.75 uM final. An example of SRC stock solution is 416.6 uM in STD buffer. […] It is desirable to make a 2× stock of this. For assays where the tighter-binding pYpYpYIE probe is used, the Src protein concentration can be reduced to 150 nM. In general, the concentration of the protein can be adjusted to match the affinity of the probe.
# Fluor-GpYEEI is used as the probe at a concentration of 20 nM final. The probe stock sent is 10 uM in STD buffer.
# Src SH3 = target: T2, Src SH3 (Homo sapiens, UniProt P12931); assay: Fluorescence polarization saturation experiment, Src SH3 binding assay with Src-SH2-SH3 protein; details: SH3 probe
# T2 construct: SH3-specific probe
# From the text: Biol. 7(5): 1978-1983 (1987)], and a probe specific for the Src SH3 domain (in place of the Src-specific SH2 probe). Note that larger or smaller Src proteins may be used, so long as they include the Src SH3 domain (with or without the Src SH2 domain). Production and purification of the protein were essentially as described above, e.g., see Example 3. The following details are provided:
# The following Src SH3 specific probe ("FPSH3") was synthesized using the techniques described in Example 1: […]
# Src-SH2 domain = target: T3, Src-SH2 domain (Homo sapiens, UniProt P12931); assay: Fluorescence polarization saturation experiment of probe FMT1 with Src-SH2; type: binding
# T3 construct: Human Src encoding residues 145-251; made in house; host or cells: E. coli BL21 (DE3), pT7 expression vector
# Protocol: Human Src encoding residues 145-251 [Tanaka, A. and Fujita, D. J., Mol. Cell. Biol. 6:3900-3909 (1986)] was cloned into the pT7 expression vector and transformed into E. coli BL21 (DE3). Protein was produced from the growth and induction of 27 liters of culture in minimal medium. In a typical preparation, the culture was grown at 37° C. to an optical density (OD) of 1.0 at 595 nm. The culture was induced with 1 mM isopropyl--D-thiogalactopyranoside (IPTG) and the temperature was dropped to 25° C. The culture was harvested 21 hours later.
# as §1
# For saturation experiments, fixed concentrations of probe were used, and increasing concentrations of Src-SH2 were added. This is the reverse of the way such assays are commonly done with radioactive ligands.
# A saturation experiment was conducted in which the Src-SH2 domain is varied in concentration from a high of 40 uM to a low of 39 nM. The fluorescent probe FMT1 (FIG. 1) was kept at a fixed concentration of 20 nM. Amino acid analysis was used to quantitate both the protein and probe concentrations. The results are illustrated in the saturation curve and Scatchard analysis of FIGS. 2A and 2B, respectively from this experiment.
# Src SH2-SH3 = Src SH2-SH3 (Homo sapiens, UniProt P12931); assay: Fluorescence polarization saturation experiment, Src SH2-SH3 double binding assay; details: saturation with Src-SH2-SH3; SH2-SH3 probe
# From the text: Proteins such as Src contain both an SH2 and an SH3 domain. Certain proteins can bind to such SH2- SH3 proteins not through SH2 or SH3 domains alone, but through both domains at once. One example is the protein, p130CAS, which is thought to bind Src via both SH2 and SH3 domains. The SH3 and SH2 binding sequences of p130CAS have been identified by deletional and site-specific mutagenesis (Nakamoto et. al., JBC 271, 8959-8965, 1996). […] Fluorescent probes for FP assays were designed based on these sequences. Such probes can be used in assays that allow simultaneous screening for both SH2-specific and SH3-specific inhibitors. One such probe ("FPC130") is the following:
# This is the native sequence from p130CAS (733-767). Derivative probes based on the foregoing but using different component SH2 and/or SH3 sequences may be used to vary the affinity or protein specificity, and especially to increase the overall affinity of probe for the desired target protein.
# GRB2 SH2 = GRB2 SH2 (Homo sapiens, UniProt P62993); details: saturation with GRB2 SH2 protein
# Protocol: The human GRB2 protein tested in the assay comprised amino acid residues 55-152 of huGRB2 [see Cell 70: 431-442 (1992)], although longer sequences encompassing the SH2 domain may also be used. Production and purification of the protein domain was similar to methods described above, especially the use of a phosphotyrosine column to purify the GRB2 SH2domain.
# As in previous examples, saturation experiments were performed with fixed concentrations of probe and increasing concentrations of Grb-2-SH2.
# The following Grb-2-specific SH2 probe ("FPgb2") was synthesized using the techniques described in Example 1 [drawing 1] 2, Fluor-GpYVNV-NH2
# Src-SH2 [2] = target: T1, Src-SH2; assay: Fluorescence polarization saturation experiment with Src-SH2 using an alternate (BODIPY-TRX) probe; type: binding; details: filters 591/635
# From the text: A competition assay was developed for Src-SH2 (applicable to any fragment of Src containing the SH2 domain) with a non-fluorescein fluorophore. The fluorophore is one of a family of fluorescent molecules containing the core fluorophore, 4,4-difluoro-4 bora-3a,4a-diaza-s-indacene (commerciallyavailable from Molecular Probes Inc.). The structure of the fluorophore-peptide probe is: [drawing 2]
# Specifically, the excitation/emission filters used with the above are 591/635, compared to 485/530 for fluorescein.
# (§2) Synthesis of the peptide portion of the probe was as described in Example 1, with production of the peptide NH2-pYEEI. The probe was further synthesized by coupling the free amine peptide, NH2-pYEEI, with the succinimidyl ester of the BODIPY-TRX probe in a 66% DMSO buffer (34% 0.1 MNaBicarbonate). Completion of reaction was monitored by silica gel TLC (4:1:1, butanol, H2O , Acetic Acid solvent system), and was done by 24 hrs.
# The only difference was the use of an alternate set of filters for the red probe, as described in A above.
# [3] = Hydrophobicity of the BODIPY-TRX peptide probe; type: physicochemical; details: resultant peptide
# From the text: as §2
# GRB2 SH2, sequence (P62993 55-152): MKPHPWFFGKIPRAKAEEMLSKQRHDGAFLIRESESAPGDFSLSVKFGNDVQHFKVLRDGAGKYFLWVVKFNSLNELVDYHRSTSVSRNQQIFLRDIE
molecule,measurement,setting,value
Ac-pYGGL,IC50,Src-SH2 [1],700000 nM
Ac-pYpYpYIE,IC50,Src-SH2 [1],500 nM
CC(C)C[C@H](NC(=O)[C@@H]1CCCN1C(=O)c1ccc2c(c1)C(=O)OC21c2ccc(O)cc2Oc2cc(O)ccc21)C(=O)N[C@@H](C)C(=O)N[C@@H](CCCNC(=N)N)C(=O)N[C@@H](CCCNC(=N)N)C(=O)N1CCC[C@H]1C(=O)N[C@@H](CC(C)C)C(=O)N1CCC[C@H]1C(=O)N1CCC[C@H]1C(=O)N[C@@H](CC(C)C)C(=O)N1CCC[C@H]1C(N)=O [FPSH3] (5FAM-PLARRPLPPLP-NH2),Kd and total mP difference on protein binding,Src SH3,appropriate Kd and total mP difference on protein binding
"CC[C@H](C)[C@H](NC(=O)[C@H](Cc1ccc(OP(=O)(O)O)cc1)NC(=O)[C@H](Cc1ccc(OP(=O)(O)O)cc1)NC(=O)[C@H](Cc1ccc(OP(=O)(O)O)cc1)NC(=O)c1ccc2c(c1)C(=O)OC21c2ccc(O)cc2Oc2cc(O)ccc21)C(=O)N[C@@H](CCC(=O)O)C(N)=O [pYpYpYIE probe, fluorescein-pYpYpYIE-NH2] (5FAM-[pY][pY][pY]IE-NH2)",Relative binding of probe to Src,Src-SH2 [1]; probe allowing Src protein reduced to 150 nM,tighter-binding
"CC[C@H](C)[C@H](NC(=O)[C@H](CCC(=O)O)NC(=O)[C@H](CCC(=O)O)NC(=O)[C@H](Cc1ccc(OP(=O)(O)O)cc1)NC(=O)CNC(=O)c1ccc2c(c1)C(=O)OC21c2ccc(O)cc2Oc2cc(O)ccc21)C(N)=O [FMT1, fluorescein-G-pYEEI-NH2] (5FAM-G[pY]EEI-NH2)",Kd,"Src-SH2 domain; FIG. 2A, error of 0.008, FMT1 fixed at 20 nM, Src-SH2 39 nM to 40 uM, read-out: Calculated Kd (non-linear least squares fit of saturation experiment)",240 nM
same,Kd,"Src-SH2 domain; FIG. 2B, R value 0.992 for the linear fit, read-out: Calculated Kd (Scatchard analysis)",260 nM
same,Binding mode in saturation experiment,Src-SH2 domain; FIGS. 2A and 2B,saturable binding to a single site is observed
same,Kd,"Src-SH2 domain; standard buffer conditions, read-out: Kd towards Src-SH2",~300 nM
Fluor-RPLPSPPKFTSQDSPDGQYENSEGGWMEDpYDYVHL [FPC130],Kd and total mP difference on protein binding,Src SH2-SH3,appropriate Kd and total mP difference on protein binding
"CC(C)[C@H](NC(=O)[C@H](CC(N)=O)NC(=O)[C@@H](NC(=O)[C@H](Cc1ccc(OP(=O)(O)O)cc1)NC(=O)CNC(=O)c1ccc2c(c1)C(=O)OC21c2ccc(O)cc2Oc2cc(O)ccc21)C(C)C)C(N)=O [FPgb2, Fluor-GpYVNV-NH2] (5FAM-G[pY]VNV-NH2)",Kd and total mP difference on protein binding,GRB2 SH2,appropriate Kd and total mP difference on protein binding
Ac-pYpYEEI,IC50,Src-SH2 [1],1500 nM
Ac-pYTGL,IC50,Src-SH2 [1],100000 nM
CC[C@H](C)[C@H](NC(=O)[C@H](CCC(=O)O)NC(=O)[C@H](CCC(=O)O)NC(=O)[C@H](Cc1ccc(OP(=O)(O)O)cc1)NC(=O)CCCCCNC(=O)CC1=C(C)C2=Cc3ccc(-c4ccc(OC)cc4)n3[B-](F)(F)[N+]2=C1C)C(N)=O [BODIPY-TRX probe],Kd and total mP difference on protein binding,Src-SH2 [2],adequate Kd and total mP difference on protein binding
same,Hydrophobicity,[3],quite hydrophobic
